Test results published in paper PMC12652692, “Synthesis and In Vitro Anticancer Evaluation of Novel Phosphonium Derivatives of Chrysin” (International Journal of Molecular Sciences, 2025).
Entries after “also recorded” stand apart in the source; their conditions may differ. Read-outs that look alike come from different tables or passages of the source.

What was measured:
[1] = tested on: panel of human malignant cell lines of gynecological origin; experiment: MTT antiproliferative assay, whole panel; assay type: cell-based; settings: for inhibition at 10 µM / IC50: Homo sapiens; for inhibition at 10 µM: across the tested cell lines, read-out: inhibition rates; for IC50: HeLa, SiHa, MCF-7, MDA-MB-231, A2780, read-out: IC50 values (range over cancer cell lines)
Description: (§1) As the NCI has not been accepting compound submissions from investigators outside the USA for NCI-60 testing since 2024, chrysin derivatives 3i, 3j, and 5 were instead evaluated in additional viability assays against a simplified panel of human cancer cell lines representing breast (MCF-7 and MDA-MB-231), cervical (HeLa and SiHa), and ovarian cancers. A nonmalignant fibroblast cell line (NIH/3T3) was also used to obtain preliminary results describing the cancer selectivity of the test substances. […] The two effective agents were further investigated using a broad concentration range (0.1–30 µM), and their IC50 values were calculated (Table 3).
Besides the cell growth-inhibiting potency, cancer selectivity is a crucial factor determining the perspective of a drug candidate. This property is expressed as a selectivity ratio, i.e., the ratio of the compound’s IC50 obtained on the non-cancerous fibroblasts and those from the cancer cell lines. A higher ratio indicates more promising cancer selectivity (Table 3). […] Based on these efficacy and selectivity data, further cell-based studies were performed with 3i against MCF-7 breast cancer cells.
(§2) The cell growth-inhibiting properties of compounds 3i, 3j, and 5 were determined by means of the MTT assay against a panel of human malignant cell lines of gynecological origin [8, 27, 40]. The panel included breast (MCF-7 and MDA-MB-231; Cellosaurus accessions: CVCL_0031 and CVCL_0062, respectively), cervical (HeLa and SiHa; CVCL_0030 and CVCL_0032, respectively), and ovarian (A2780; CVCL_0134) cell lines. Nonmalignant murine NIH/3T3 (CVCL_0594) fibroblasts were also used to obtain results characterizing the cancer selectivity of the tested substances. The whole assay was performed as described earlier. […] All applied cell lines were obtained from the European Collection of Cell Cultures (Salisbury, UK), except for SiHa (American Tissue Culture Collection, Manassas, VA, USA). Cisplatin, a clinically available anticancer drug, was included as a reference compound. All experiments were conducted twice, with at least five replicates per condition.

A2780 [2] = experiment: MTT antiproliferative assay; assay type: cell-based, human; settings: for IC50 / inhibition at 10 µM / inhibition at 30 µM: Homo sapiens; for IC50: read-out: IC50 Value (μM) ± SEM; for inhibition at 10 µM: A2780, 10 μM; for inhibition at 30 µM: A2780, 30 μM; for Selectivity Ratio: IC50 on NIH/3T3 fibroblasts / IC50 on A2780
Description: as §1, §2

HeLa [3] = experiment: MTT antiproliferative assay; assay type: cell-based, human; settings: for IC50 / inhibition at 10 µM / inhibition at 30 µM: Homo sapiens, HeLa; for IC50: read-out: IC50 Value (μM) ± SEM; for Selectivity Ratio: IC50 on NIH/3T3 fibroblasts / IC50 on HeLa
Description: as §1, §2

SiHa [4] = experiment: MTT antiproliferative assay; assay type: cell-based, human; settings: for IC50 / inhibition at 10 µM / inhibition at 30 µM: Homo sapiens, SiHa; for IC50: read-out: IC50 Value (μM) ± SEM; for Selectivity Ratio: IC50 on NIH/3T3 fibroblasts / IC50 on SiHa
Description: as §1, §2

MCF-7 [5] = experiment: MTT antiproliferative assay; assay type: cell-based, human; settings: for inhibition at 10 µM / inhibition at 30 µM / IC50: Homo sapiens, MCF7; for inhibition at 10 µM: MCF-7, 10 μM; for inhibition at 30 µM: MCF-7, 30 μM; for IC50: MCF-7, read-out: IC50 Value (μM) ± SEM; for Selectivity Ratio: IC50 on NIH/3T3 fibroblasts / IC50 on MCF-7
Description: as §1, §2

MDA-MB-231 [6] = experiment: MTT antiproliferative assay; assay type: cell-based, human; settings: for IC50 / inhibition at 10 µM / inhibition at 30 µM: Homo sapiens; for IC50: read-out: IC50 Value (μM) ± SEM; for inhibition at 10 µM: MDA-MB-231, 10 μM; for inhibition at 30 µM: MDA-MB-231, 30 μM; for Selectivity Ratio: IC50 on NIH/3T3 fibroblasts / IC50 on MDA-MB-231
Description: as §1, §2

NIH/3T3 (fibroblast) [7] = experiment: MTT antiproliferative assay; assay type: cell-based, murine; settings: Mus musculus; for inhibition at 10 µM: NIH3T3, 10 μM; for IC50: NIH3T3, read-out: IC50 Value (μM) ± SEM
Description: as §1, §2

MCF-7 cells [8] = experiment: Wound-healing assay (migration); assay type: cell-based, human
Protocol: The effect of the selected compound on the migration of MCF-7 cells was investigated by means of the wound-healing assay.
The effect of substance 3i on the migration of the treated cancer cells was determined using a wound-healing assay, as presented earlier. Briefly, MCF-7 cells were trypsinized and plated into wound assay chambers (ibidi GmbH, Martinsried, Germany) at a density of 40,000 cells/insert, and the plate was incubated under standard conditions to allow proper attachment. Then, the inserts were carefully removed, and the cells were subsequently treated with 3i in fresh medium containing 2% FBS. The cell migration was recorded using a phase-contrast inverted microscope (Nikon Instruments Europe, Amstelveen, The Netherlands) fitted with a CCD camera (QImaging MicroPublisher Color RTV5.0 Teledyne Photometrics, Tucson, AZ, USA). The cell-free areas in treated samples and controls were determined using ImageJ software 1.54d (National Institutes of Health, Bethesda, MD, USA). The assays were performed in triplicates and all the statistical analyses were carried out by means of GraphPad Prism software.

MCF-7 cells [9] = experiment: Cell cycle analysis by flow cytometry; assay type: cell-based, human; settings: MCF-7, 0.3 and 0.6 µM
Protocol: The observed cell cycle disturbance is consistent with a blockade at the G1–S transition, which triggers apoptotic cell death.
Cell cycle analysis by flow cytometry was applied to characterize the effects of 3i on the phase distribution of the treated cells. MCF-7 cells were seeded onto 12-well plates (200,000 cells/well) and incubated overnight. They were then treated with 0.3 or 0.6 μM for 24 or 48 h. After the treatment, the propidium iodide-labeled cells were analyzed using a CytoFLEX instrument (Beckman Coulter, Brea, CA, USA), and at least 20,000 cells per sample were evaluated, as described in a recent publication. The obtained data were processed using ModFit LT 3.3.11 software (Verity Software House, Topsham, ME, USA) as referenced by Vermes et al..

MCF-7 [10] = tested on: MCF-7; set-up: method as in PMID 40332477; settings: published earlier ref 8, read-out: IC50 Value (μM) ± SEM; cited from earlier work
A2780 [11] = tested on: A2780; set-up: method as in PMID 40332477; settings: published earlier ref 8, read-out: IC50 Value (μM) ± SEM; cited from earlier work
SiHa [12] = tested on: SiHa; set-up: method as in PMID 40332477; settings: published earlier ref 8, read-out: IC50 Value (μM) ± SEM; cited from earlier work
HeLa [13] = tested on: HeLa; set-up: method as in PMID 40332477; settings: published earlier ref 8, read-out: IC50 Value (μM) ± SEM; cited from earlier work
MDA-MB-231 [14] = tested on: MDA-MB-231; set-up: method as in PMID 40332477; settings: published earlier ref 8, read-out: IC50 Value (μM) ± SEM; cited from earlier work
NIH/3T3 (fibroblast) [15] = tested on: NIH/3T3 (fibroblast); set-up: method as in PMID 40332477; settings: published earlier ref 8, read-out: IC50 Value (μM) ± SEM; cited from earlier work
[16] = read-out: Growth Inhibition (%) ± SEM
[17] = read-out: Growth Inhibition (%) ± SEM (converted)
[18] = NIH3T3, 30 μM, read-out: Growth Inhibition (%) ± SEM
[19] = A2780, heading: Growth Inhibition ± SEM
[20] = heading: Growth Inhibition ± SEM
[21] = MDA-MB-231, heading: Growth Inhibition ± SEM

| Structure (SMILES) | inhibition at 10 µM [1] [%] | IC50 [1] [nM] | IC50 (A2780 [2]; A2780) [µM] | inhibition at 10 µM (A2780 [2]; [16]) [%] | inhibition at 30 µM (A2780 [2]; [17]) [%] | Selectivity Ratio (A2780 [2]) | IC50 (HeLa [3]) [µM] | inhibition at 10 µM (HeLa [3]; [16]) [%] | inhibition at 30 µM (HeLa [3]; [17]) [%] | Selectivity Ratio (HeLa [3]) | IC50 (SiHa [4]) [µM] | inhibition at 10 µM (SiHa [4]; [16]) [%] | inhibition at 30 µM (SiHa [4]; [17]) [%] | Selectivity Ratio (SiHa [4]) | inhibition at 10 µM (MCF-7 [5]; [16]) [%] | inhibition at 30 µM (MCF-7 [5]; [16]) [%] | IC50 (MCF-7 [5]) [µM] | Selectivity Ratio (MCF-7 [5]) | Selectivity Ratio (MDA-MB-231 [6]) | inhibition at 10 µM (NIH/3T3 (fibroblast) [7]; [16]) [%] | further results |
| --- | --- | --- | --- | --- | --- | --- | --- | --- | --- | --- | --- | --- | --- | --- | --- | --- | --- | --- | --- | --- | --- |
| CC(C)(C)[P+](CCCCOc1cc(O)c2c(=O)cc(-c3ccccc3)oc2c1)(c1ccccc1)c1ccccc1 [3j] | > 80 | 880 to 2930 | 1.37 ± 0.04 | 98.77 ± 0.19 | 98.96 ± 0.381 | 1.43 | 2.93 ± 0.02 | 96.64 ± 0.26 | 97.5 | 0.67 | 1.47 ± 0.01 | 97.91 ± 0.06 | 97.81 ± 0.46 | 1.33 | 98.65 ± 0.29 | 98.68 ± 0.32 | 0.88 ± 0.01 | 2.23 | 1.58 | 98.38 ± 0.53 | IC50 (MDA-MB-231 [6]; MDA-MB-231): 1.24 ± 0.02 µM; inhibition at 10 µM (MDA-MB-231 [6]; [16]): 98 ± 1.03%; inhibition at 30 µM (MDA-MB-231 [6]; [17]): 98.1 ± 0.13%; inhibition at 30 µM (NIH/3T3 (fibroblast) [7]; [18]): 99%; IC50 (NIH/3T3 (fibroblast) [7]): 1.96 ± 0.01 µM |
| COc1ccccc1[P+](CCCCOc1cc(O)c2c(=O)cc(-c3ccccc3)oc2c1)(c1ccccc1)c1ccccc1 [3i] | > 80 | 260 to 1150 | 0.66 ± 0.03 | 96.85 ± 0.37 | 98.3 | 2.52 | 1.08 ± 0.02 | 96.5 ± 2.76 | 98.9 | 1.54 | 1.15 ± 0.03 | 83.2 ± 2.13 | 104 | 1.44 | 95.4 ± 1.54 | 95.8 ± 1.46 | 0.26 ± 0.02 | 6.38 | 3.07 | 97.73 ± 0.53 | inhibition of migration (MCF-7 cells [8]; MCF-7, 24 h): significant inhibition in the migration capacity at a concentration of 0.3 μM only; inhibition of migration (MCF-7 cells [8]; MCF-7, 48 h): significant even at subantiproliferative concentration (0.1 μM); cell cycle distribution (MCF-7 cells [9]; 24 h): significantly increased the proportion of the G0/G1 cell population; cell cycle distribution (MCF-7 cells [9]; 48 h): statistically significant accumulation of the hypodiploid (SubG1) cell population; IC50 (MDA-MB-231 [6]; MDA-MB-231): 0.54 ± 0.02 µM; inhibition at 10 µM (MDA-MB-231 [6]; [16]): 88.6 ± 3.72%; inhibition at 30 µM (MDA-MB-231 [6]; [17]): 87.4%; inhibition at 30 µM (NIH/3T3 (fibroblast) [7]; [18]): 98.5%; IC50 (NIH/3T3 (fibroblast) [7]): 1.66 ± 0.15 µM |
| O=C(CC(c1ccccc1)(c1ccccc1)c1ccccc1)Oc1cc(O)c2c(=O)cc(-c3ccccc3)oc2c1 [compound 5] |  |  |  |  |  |  |  |  |  |  |  |  |  |  |  |  |  |  |  | > 10 | cell growth-inhibiting effect (in words) ([1]; 10 and 30 μM): ineffective; also recorded: no cytotoxicity; inhibition at 10 µM (A2780 [2]; [19]): < 10%; inhibition at 30 µM (A2780 [2]; [19]): < 10%; inhibition at 10 µM (HeLa [3]; [20]): < 10%; inhibition at 30 µM (HeLa [3]; [20]): < 10%; inhibition at 10 µM (SiHa [4]; [20]): < 10%; inhibition at 30 µM (SiHa [4]; [20]): < 10%; inhibition at 10 µM (MCF-7 [5]; [20]): < 10%; inhibition at 30 µM (MCF-7 [5]; [20]): < 10%; inhibition at 10 µM (MDA-MB-231 [6]; [21]): < 10%; inhibition at 30 µM (MDA-MB-231 [6]; [21]): < 10%; inhibition at 30 µM (NIH/3T3 (fibroblast) [7]; NIH3T3, heading: Growth Inhibition ± SEM, 30 μM): < 10% |
| N.N.[Cl][Pt][Cl] [Cisplatin] |  |  |  |  |  | 1.93 |  |  |  | 0.20 |  |  |  | 0.17 |  |  |  | 1.04 | 0.14 |  | IC50 (MCF-7 [10]): 2.6 ± 0.17 µM; IC50 (A2780 [11]): 1.4 ± 0.11 µM; IC50 (SiHa [12]): 15.5 ± 0.93 µM; IC50 (HeLa [13]): 13.6 ± 0.44 µM; IC50 (MDA-MB-231 [14]): 19.13 ± 0.12 µM; IC50 (NIH/3T3 (fibroblast) [15]): 2.7 ± 0.3 µM |
